Test results from US20080269163A1, “Methods and Compositions for Protecting Cells from Ultrasound-Mediated Cytolysis” (priority 2004, published 2008).
Entries after “also recorded” stand apart in the source; their conditions may differ.

Tests used:
HL-60 cells [1] = experiment: Ultrasound-induced cytolysis of HL-60 cells, Coulter counter analysis; format: cell-based; conditions: for concentration giving complete (approximately 100%) protection from ultrasound induced cytolysis / effect on ultrasound induced cytolysis (% cytolysis): 1.057 MHz (1 MHz), 10 W; for concentration giving complete (approximately 100%) protection from ultrasound induced cytolysis / effect on ultrasound induced cytolysis (% cytolysis) / effect on ultrasound induced cytolysis: 5 s; for concentration giving complete (approximately 100%) protection from ultrasound induced cytolysis: air exposed; for cells protected from immediate cytolysis: 7 mM HGP; for change of protection from cytolysis as frequency is decreased: frequency decreased from 1 MHz to 42 kHz
Method: Cells: HL-60 myeloid leukemia cells (American Type Culture Collection) were grown in a suspension of RPMI 1640 medium (GIBCO, Gaithersburg, Md.) containing 10% calf serum. The population of HL-60 cells doubled every 23±1 hr (hour ±SEM) when incubated at 37° C. in a CO2 (5%) containing atmosphere. Cells were harvested, re-suspended in fresh RPMI medium and kept at 25° C. until the start of the experiment (typically less than 1 hr). […] The fraction of intact cells before and after ultrasound was determined using a Coulter multisizer (model IIe) connected to a sampling stand (model IIa). The number of intact cells was determined by counting the total number of particles under the bell shaped curve (e.g., FIG. 1a) before and following sonolysis. The cytolysis percentage was determined by subtracting the number of intact cells following sonolysis from the number of intact cells before sonolysis. This value was divided by the number of intact cells before sonolysis and multiplied by 100 to obtain the cytolysis percentage value.
The temperature of the coupling water was 25° C.
We have confirmed the validity of this technique for studying the effects of sonolysis in our ultrasound system by the trypan blue exclusion assay. The mean size of HL-60 cells was determined from the Coulter counter results prior to sonolysis and was approximately 650 μm3 (FIG. 1a) which equates to a mean cell diameter of […].
42 kHz sonolysis was conducted in a similar way but using a Branson ultrasound bath (model number 1510). […] At 42 kHz, a transducer was used to decrease the power of the bath to 50% of its original value. The temperature of the coupling water at all frequencies was 25° C.
(§1) The percentage of cytolysis of HL-60 cells was determined by measurement of the cell size distribution using a Coulter multisizer. This method correlates well with percentage cytolysis measured using the Trypan blue exclusion assay immediately following sonolysis and is explained in detail elsewhere (Miyoshi, N. et al. 2003). […] This immediate ultrasound induced cytolysis (i.e., % cytolysis) is represented in FIGS. 2, 10-12 at a concentration of zero.
42 kHz sonolysis was conducted in a similar way but using a Branson ultrasound bath (model number […]). […] At 42 kHz, a transducer was used to decrease the power of the bath to 50% of its original value. The temperature of the coupling water at all frequencies was 25° C.
as §1, with “represented” for “represented in FIGS. 2, 10-12”

HL-60 cells [2] = tested on: HL-60 cells
Method: (§2) Cell experiments were completed within 5 to 10 minutes of adding the glucopyranosides to the cell suspensions, and each data point represents an average ±SEM, where n=5 to 8. […] For this reason, we only studied the effects of MGP, HGP, HepGP and OGP on the ultrasound induced cytolysis of HL-60 cells.

HL-60 cells [3] = experiment: Mechanical fragility test (Burrell wrist action shaker, glass beads), HL-60 cells; format: cell-based; conditions: for protection from mechanical induced cytolysis: 30 min shaking, 50% power, HGP 1-10 mM, HepGP 0.1-10 mM, MGP 10-30 mM, OGP 0.3-3 mM
Method: 10 ml borosilicate glass beads in a 125 ml conical flask. 10 ml cell suspension in the presence and absence (control) of various glucopyranosides (HGP, HepGP, MGP, and OGP) in a cell culture medium containing 10% DPBS solution. Shaking was conducted over a period of 30 minutes. Each data point represents ±SD, where n=5.
Mechanical Fragility Test: the effect of glucopyranosides on the mechanical fragility of the cells was determined by inducing mechanical shear stress to a cell suspension. This involved placing 10 mL of HL-60 cells in suspension in 125 ml sized screw capped conical flasks containing 10 mL of borosilicate solid-glass beads (Sigma-Aldrich, mean particle diameter of 3 mm), similar to the methods described elsewhere (Carstensen, E. L. et al. 1993; Miller, M. W. et al. 2003). The samples were then shaken in a Burrell wrist action shaker (model number 75, Burrell Scientific, Pittsburgh, Pa.) at 50% power for a duration of 30 minutes. Using this method, up to eight sample solutions could be run at one time. […] In samples containing glucopyranosides, the surfactant was dissolved in 1 ml of DPBS and added to 9 ml of the cell suspension.

HL-60 cells [4] = experiment: Exposure of HL-60 cells to glucopyranosides alone (no ultrasound); conditions: 15 minute exposure at highest concentrations used
Method: as §2

HL-60 cells [5] = experiment: Reproduction assay of HL-60 cells following sonolysis; format: cell-based; conditions: for reproduction ratio one or two days post treatment: 7 mM HGP; for reproductive viability (reproduction fraction) over 24 hours after sonolysis: 5 seconds, 10 W, varying concentrations
Method: Cells were allowed to reproduce for 24 hours. Reproduction fraction ±SD (where n=6 to 8) is calculated by dividing the number of cells counted following 24 hours of reproduction by the number of cells counted at the start of incubation.
Control data points were run in triplicate with a standard deviation of less than 10%. Sonolysis points represent an average of six separate cell suspensions, with a standard deviation of less than 10%.
The reproduction ratio is the number of cells present one or two days post treatment divided by the number of cells present on the treatment day.
Reproduction Assay: for FIG. 5, a reproduction assay was conducted over a period of 10 days to determine the long term viability of cells following ultrasound treatment in the presence of either HGP or OGP at concentrations where 100% protection from cytolysis occurred. The long term viability of treated cell suspensions was compared to the long term viability of untreated control cell suspensions held under exactly the same conditions (FIG. 5). Immediately following sonolysis, a 100 μl aliquot of the 1 ml treated (or control) samples was used for Coulter counter analysis in order to confirm that 100% of the cells had survived the ultrasound treatment. Viability of the cells was determined by using a very small volume (approx. 20 μl) of suspension for trypan blue staining. The remaining ≈0.9 ml cell suspensions were diluted to 3 ml with fresh medium, centrifuged, washed with fresh medium, and finally re-suspended in fresh medium (2 ml). 100 μl of this new 2 ml of cells suspended in fresh medium was then used to determine the cell concentration. This cell concentration is defined as ‘the cell concentration at Day 0 after ultrasound treatment’ (Ci). Cell suspensions were then kept at 37° C. in a 5% CO2 incubator for a total of 10 days.
Over the 10 day period, cells had to be spun down occasionally and re-suspended in fresh medium to replenish the nutrients necessary for a healthy cell population. 100 μl aliquots of the original cell suspension were used to measure the cell concentration both before (Cfinal) and following (Cinitial) re-suspension in fresh medium. This procedure, although necessary, results in a slight underestimation in the expected number of cells on any given day, when compared to the original cell concentration, Ci. To account for this small, but significant underestimation, we calculated the actual number of cells that would have been observed had we not been periodically extracting small aliquots for the detection of cell numbers by the Coulter counter. This was done by calculating a ‘reproduction ratio’, determined by dividing Cfinal by Cinitial that was measured one or two days earlier and comparing this ratio to (Ci), to give a ‘real cell population’. It should be noted that this calculation is done simply as a matter of convenience and that the reproduction ability of the treated samples was compared to control samples that were treated in the same way over the day period, as shown in FIG. 5. Verification of this method is given by the fact that the cells of the control samples double approximately every day (FIG. 5), as expected for HL-60 cells under the conditions of incubation in the current study.

HL-525 cells = experiment: Sonolysis of HL-525 cells, % cytolysis; format: cell-based; conditions: 1 MHz (1057 kHz), 10 W, 5 sec
Method: Conditions: 42 kHz, 50% power, 5 sec, 20° C., % cytolysis ±SD (n=6).
Conditions: 354 kHz, 15 W, 5 sec, 20° C., % cytolysis ±SD (n=6).
Conditions: 614 kHz, 20 W, 5 sec, 20° C., % cytolysis ±SD (n=6).
Conditions: 1057 kHz, 10 W, 5 sec, 20° C., % cytolysis ±SD (n=6).

## CCCCCCCNC(=O)OC[C@H]1O[C@H](OC)[C@H](O)[C@@H](O)[C@@H]1O [ANAMEG-7, methyl-6-O—(N-heptylcarbamoyl)-α-D-glucopyranoside]
HL-60 cells [1]; HL-60 cells
  concentration giving complete (approximately 100%) protection from ultrasound induced cytolysis: 3 mM

## OC[C@H]1O[C@@H](OCCCC2CCCCC2)[C@H](O)[C@@H](O)[C@@H]1O [Cyglu-3, 3-cyclohexyl-1-propyl-β-D-glucoside]
HL-60 cells [1]; HL-60 cells
  concentration giving complete (approximately 100%) protection from ultrasound induced cytolysis: 5 mM

## CCCCCCCCCCO[C@@H]1O[C@H](CO)[C@@H](O)[C@H](O)[C@H]1O [DGP, decyl-β-D-Glucopyranoside]
HL-60 cells [2]
  lysis of cells on exposure (Coulter counter, trypan blue): immediate lysis of a large population of cells

## CCCCCCO[C@@H]1O[C@H](CO)[C@@H](O)[C@H](O)[C@H]1O [HGP, hexyl-β-D-Glucopyranoside]
HL-60 cells [3]
  protection from mechanical induced cytolysis: none of the glucopyranosides tested
HL-60 cells [1]; 354 kHz
  cells protected from immediate cytolysis: 100%
HL-60 cells [1]; 614 kHz
  cells protected from immediate cytolysis: 100%
HL-60 cells [1]; HGP 5 mM, 1.057 MHz, 15 seconds, 30 W
  ultrasound induced cytolysis: eliminated
HL-60 cells [1]; HGP 5 mM, 1.057 MHz, extreme conditions with almost 100% cytolysis without HGP
  protection from sonolysis under a range of ultrasound intensities and exposure times: could protect cells from cytolysis even during extreme conditions of sonolysis
HL-60 cells [1]; HL-60 cells
  effect on ultrasound induced cytolysis (% cytolysis): fully protects
  change of protection from cytolysis as frequency is decreased: less effective
HL-60 cells [1]; HL-60 cells, 42 kHz, 50% power
  effect on ultrasound induced cytolysis: very small sonosensitization; also recorded: not at 42 kHz
HL-60 cells [1]; HL-60 cells, 354 kHz, 15 W
  effect on ultrasound induced cytolysis: fully protects
HL-60 cells [1]; HL-60 cells, 614 kHz, 20 W
  effect on ultrasound induced cytolysis: fully protects
HL-60 cells [4]
  effect on reproduction rate of the cells over 120 hours: no detrimental effect
HL-60 cells [5]; 354 kHz
  reproduction ratio one or two days post treatment: continue to reproduce at the same rate
HL-60 cells [5]; 614 kHz
  reproduction ratio one or two days post treatment: continue to reproduce at the same rate
HL-60 cells [5]; HGP 5 mM, 1.057 MHz, 15 seconds, 40 W and 60 W
  reproduction of treated cells over 10 days: continue to reproduce at a rate comparable to that of untreated control cells
HL-60 cells [5]
  reproductive viability (reproduction fraction) over 24 hours after sonolysis: continue to reproduce at the same rate as untreated control samples

## CCCCCCO[C@@H]1O[C@H](CO)[C@@H](O[C@H]2O[C@H](CO)[C@@H](O)[C@H](O)[C@H]2O)[C@H](O)[C@H]1O [HMP, Hexyl-β-D maltopyranoside]
HL-60 cells [1]; HL-60 cells
  concentration giving complete (approximately 100%) protection from ultrasound induced cytolysis: 1 mM

## CCCCCCCO[C@@H]1O[C@H](CO)[C@@H](O)[C@H](O)[C@H]1O [HepGP, heptyl-β-D-Glucopyranoside]
HL-60 cells [3]
  protection from mechanical induced cytolysis: none of the glucopyranosides tested
HL-60 cells [3]; relatively high concentrations
  effect on cell membrane stability to mechanical shear stress: significant destabilization of the cell membrane to mechanical shear stress
HL-60 cells [1]; HL-60 cells
  effect on ultrasound induced cytolysis (% cytolysis): fully protects
  concentration giving complete (approximately 100%) protection from ultrasound induced cytolysis: 3 mM
  change of protection from cytolysis as frequency is decreased: less effective
HL-60 cells [1]; HL-60 cells, 42 kHz, 50% power
  effect on ultrasound induced cytolysis: very small sonosensitization
HL-60 cells [1]; HL-60 cells, 614 kHz, 20 W
  effect on ultrasound induced cytolysis: fully protects
HL-60 cells [4]
  effect on reproduction rate of the cells over 120 hours: no detrimental effect
HL-60 cells [5]
  reproductive viability (reproduction fraction) over 24 hours after sonolysis: continue to reproduce at the same rate as untreated control samples

## CO[C@@H]1O[C@H](CO)[C@@H](O)[C@H](O)[C@H]1O [MGP, Methyl-β-D-Glucopyranoside, reference compound]
HL-60 cells [3]
  protection from mechanical induced cytolysis: none of the glucopyranosides tested
HL-525 cells
  protective effect for HL-525 cells compared to HL-60 cells: different protection effects
HL-60 cells [1]; HL-60 cells
  effect on ultrasound induced cytolysis (% cytolysis): no effect
HL-60 cells [1]; HL-60 cells, 42 kHz to 1 MHz, MGP 10 to 30 mM
  effect on ultrasound induced cytolysis at any ultrasound frequency: effectively has no effect
HL-60 cells [4]
  effect on reproduction rate of the cells over 120 hours: no detrimental effect

## CCCCCCCCO[C@H]1O[C@H](CO)[C@@H](O)[C@H](O)[C@H]1O [alphaOGP, n-octyl-α-D-glucopyranoside]
HL-60 cells [1]; HL-60 cells
  effect on ultrasound induced cytolysis (% cytolysis): very slight protective effect
